Columns and labels:
Type in all cases: binding
Conditions in all cases: 1 = hit, 0 = no hit
CAMK1G (1-320) = target: T1, CAMK1G (1-320) (Homo sapiens, UniProt Q96NX5); assay: STD-NMR fragment screening, CAMK1G
T1 construct: made in house; host or cells: E. coli BL21 (DE3) pLysS
Procedure, shortened: (§1)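 Saturation-transfer difference NMR was run at 25°C and 700 MHz with 20 µM protein, two fragments at 1 mM each, and 10% DMSO-d6. On-resonance saturation was at 0.5–0.6 ppm and off-resonance at 40 ppm, with a 3 s Gaussian-pulse train. A hit required a difference-spectrum peak at least three times the local noise.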

AAK1 (121-471) = AAK1 (121-471) (Homo sapiens, UniProt Q2M2I8); assay: STD-NMR fragment screening, AAK1
Chain of AAK1 (121-471) (Q2M2I8 46-315 limits assumed): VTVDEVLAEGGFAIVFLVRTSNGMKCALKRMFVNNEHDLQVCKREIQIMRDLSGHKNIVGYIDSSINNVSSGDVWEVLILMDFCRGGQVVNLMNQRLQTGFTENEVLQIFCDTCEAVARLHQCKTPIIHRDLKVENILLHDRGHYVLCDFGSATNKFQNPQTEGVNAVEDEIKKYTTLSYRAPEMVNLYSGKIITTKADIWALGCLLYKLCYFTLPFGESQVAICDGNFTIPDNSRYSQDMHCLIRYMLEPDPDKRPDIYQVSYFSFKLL
Procedure, shortened: as §1

DOT1L (1-416) = target: T2, DOT1L (1-416) (Homo sapiens, UniProt Q8TEK3); assay: STD-NMR fragment screening, DOT1L
T2 construct: made in house; host or cells: E. coli BL21 (DE3) pLysS
T2 sequence (Q8TEK3 1-416): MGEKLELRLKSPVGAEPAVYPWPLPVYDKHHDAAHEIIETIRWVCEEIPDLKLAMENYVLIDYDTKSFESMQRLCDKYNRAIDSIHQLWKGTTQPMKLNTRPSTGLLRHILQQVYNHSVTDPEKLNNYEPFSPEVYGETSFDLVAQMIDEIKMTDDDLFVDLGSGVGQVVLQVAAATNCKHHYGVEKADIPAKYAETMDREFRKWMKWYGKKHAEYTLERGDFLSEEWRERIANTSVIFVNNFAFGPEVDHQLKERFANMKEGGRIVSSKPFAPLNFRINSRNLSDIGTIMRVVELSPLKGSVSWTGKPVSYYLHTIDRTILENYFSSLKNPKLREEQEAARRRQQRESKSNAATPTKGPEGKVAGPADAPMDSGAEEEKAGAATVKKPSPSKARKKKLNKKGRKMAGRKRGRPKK
Procedure, shortened: as §1

IDO1 (1-435) = target: T3, IDO1 (1-435) (Homo sapiens, UniProt P14902); assay: STD-NMR fragment screening, IDO1
T3 construct: His-tag of pET15b with TEV site (thrombin site replaced) (cleaved yes); made in house; host or cells: E. coli Rosetta 2 (DE3) pLysS
T3 sequence (P14902 whole entry, the tested form may be a part): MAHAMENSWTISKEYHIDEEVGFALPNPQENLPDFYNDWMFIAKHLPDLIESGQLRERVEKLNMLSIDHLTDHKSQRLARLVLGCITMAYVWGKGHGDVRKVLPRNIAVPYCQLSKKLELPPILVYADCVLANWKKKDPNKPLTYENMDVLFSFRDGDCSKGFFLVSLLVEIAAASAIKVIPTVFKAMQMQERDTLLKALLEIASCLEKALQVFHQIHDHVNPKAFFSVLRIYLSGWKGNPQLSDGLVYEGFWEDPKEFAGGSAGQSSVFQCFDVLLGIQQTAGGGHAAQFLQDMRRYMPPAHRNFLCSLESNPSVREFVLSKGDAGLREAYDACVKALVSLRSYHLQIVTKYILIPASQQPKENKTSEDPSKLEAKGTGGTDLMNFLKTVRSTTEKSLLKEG
Procedure, shortened: as §1

T1 sequence (Q96NX5 1-320): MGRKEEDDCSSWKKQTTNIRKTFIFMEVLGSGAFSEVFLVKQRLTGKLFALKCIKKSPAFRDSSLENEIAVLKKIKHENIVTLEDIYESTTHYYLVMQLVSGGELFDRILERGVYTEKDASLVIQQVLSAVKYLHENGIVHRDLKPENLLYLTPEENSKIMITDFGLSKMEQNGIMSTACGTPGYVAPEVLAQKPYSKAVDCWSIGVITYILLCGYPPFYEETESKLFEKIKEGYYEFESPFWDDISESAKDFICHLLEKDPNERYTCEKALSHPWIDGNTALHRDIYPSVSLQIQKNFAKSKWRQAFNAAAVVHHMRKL

SMILES: Oc1coc(O)c1Br [Fragment B02291100]
- CAMK1G (STD-NMR hit flag) (CAMK1G (1-320)): 0
- AAK1 (STD-NMR hit flag) (AAK1 (121-471)): 0
- DOT1L (STD-NMR hit flag) (DOT1L (1-416)): 0
- IDO1 (STD-NMR hit flag) (IDO1 (1-435)): 0

SMILES: Cc1nc(N)nc(Cl)c1Cl [Fragment B02291102]
- CAMK1G (STD-NMR hit flag) (CAMK1G (1-320)): 1
- AAK1 (STD-NMR hit flag) (AAK1 (121-471)): 1
- DOT1L (STD-NMR hit flag) (DOT1L (1-416)): 0
- IDO1 (STD-NMR hit flag) (IDO1 (1-435)): 1

SMILES: CCn1ncc(Br)c1C(N)=O [Fragment B02291150]
- CAMK1G (STD-NMR hit flag) (CAMK1G (1-320)): 1
- AAK1 (STD-NMR hit flag) (AAK1 (121-471)): 1
- DOT1L (STD-NMR hit flag) (DOT1L (1-416)): 0
- IDO1 (STD-NMR hit flag) (IDO1 (1-435)): 0

SMILES: Cc1nn(CCN)cc1Cl [Fragment B02291152]
- CAMK1G (STD-NMR hit flag) (CAMK1G (1-320)): 0
- AAK1 (STD-NMR hit flag) (AAK1 (121-471)): 0
- DOT1L (STD-NMR hit flag) (DOT1L (1-416)): 0
- IDO1 (STD-NMR hit flag) (IDO1 (1-435)): 0

SMILES: Oc1ccc(Cl)cc1/C=C/C12CN3CN(CN(C3)C1)C2 [Fragment B02291153]
- CAMK1G (STD-NMR hit flag) (CAMK1G (1-320)): 0
- AAK1 (STD-NMR hit flag) (AAK1 (121-471)): 0
- DOT1L (STD-NMR hit flag) (DOT1L (1-416)): 0
- IDO1 (STD-NMR hit flag) (IDO1 (1-435)): 0

SMILES: O=C(O)c1nn(Cn2cccn2)cc1Cl [Fragment B02291154]
- CAMK1G (STD-NMR hit flag) (CAMK1G (1-320)): 0
- AAK1 (STD-NMR hit flag) (AAK1 (121-471)): 0
- DOT1L (STD-NMR hit flag) (DOT1L (1-416)): 0
- IDO1 (STD-NMR hit flag) (IDO1 (1-435)): 0

SMILES: CCn1ncc(Br)c1CNC [Fragment B02291155]
- CAMK1G (STD-NMR hit flag) (CAMK1G (1-320)): 0
- AAK1 (STD-NMR hit flag) (AAK1 (121-471)): 0
- DOT1L (STD-NMR hit flag) (DOT1L (1-416)): 0
- IDO1 (STD-NMR hit flag) (IDO1 (1-435)): 0

SMILES: Nc1nn(CC(=O)O)cc1Br [Fragment B02291156]
- CAMK1G (STD-NMR hit flag) (CAMK1G (1-320)): 0
- AAK1 (STD-NMR hit flag) (AAK1 (121-471)): 0
- DOT1L (STD-NMR hit flag) (DOT1L (1-416)): 0
- IDO1 (STD-NMR hit flag) (IDO1 (1-435)): 0

SMILES: Brc1cccc2c1CNC2 [Fragment B02291212]
- CAMK1G (STD-NMR hit flag) (CAMK1G (1-320)): 0
- AAK1 (STD-NMR hit flag) (AAK1 (121-471)): 0
- DOT1L (STD-NMR hit flag) (DOT1L (1-416)): 0
- IDO1 (STD-NMR hit flag) (IDO1 (1-435)): 0

SMILES: CS(=O)(=O)c1ccc(Cl)c(S(C)(=O)=O)c1 [Fragment B02291213]
- CAMK1G (STD-NMR hit flag) (CAMK1G (1-320)): 0
- AAK1 (STD-NMR hit flag) (AAK1 (121-471)): 0
- DOT1L (STD-NMR hit flag) (DOT1L (1-416)): 0
- IDO1 (STD-NMR hit flag) (IDO1 (1-435)): 0

SMILES: Cn1nc(C(F)(F)F)c(CO)c1Cl [Fragment B02291214]
- CAMK1G (STD-NMR hit flag) (CAMK1G (1-320)): 0
- AAK1 (STD-NMR hit flag) (AAK1 (121-471)): 0
- DOT1L (STD-NMR hit flag) (DOT1L (1-416)): 0
- IDO1 (STD-NMR hit flag) (IDO1 (1-435)): 0

SMILES: Cn1c2nc(Cl)nc-2c(O)n(C)c1=O [Fragment B02291216]
- CAMK1G (STD-NMR hit flag) (CAMK1G (1-320)): 1
- AAK1 (STD-NMR hit flag) (AAK1 (121-471)): 1
- DOT1L (STD-NMR hit flag) (DOT1L (1-416)): 0
- IDO1 (STD-NMR hit flag) (IDO1 (1-435)): 1

SMILES: Nc1c(Cl)ccc2nonc12 [Fragment B02291217]
- CAMK1G (STD-NMR hit flag) (CAMK1G (1-320)): 0
- AAK1 (STD-NMR hit flag) (AAK1 (121-471)): 1
- DOT1L (STD-NMR hit flag) (DOT1L (1-416)): 0
- IDO1 (STD-NMR hit flag) (IDO1 (1-435)): 0

SMILES: Cc1c(Cl)c(C(=O)O)nn1C [Fragment B02291218]
- CAMK1G (STD-NMR hit flag) (CAMK1G (1-320)): 0
- AAK1 (STD-NMR hit flag) (AAK1 (121-471)): 0
- DOT1L (STD-NMR hit flag) (DOT1L (1-416)): 0
- IDO1 (STD-NMR hit flag) (IDO1 (1-435)): 0

SMILES: Nc1ncc(C(F)(F)F)cc1Cl [Fragment B02291219]
- CAMK1G (STD-NMR hit flag) (CAMK1G (1-320)): 1
- AAK1 (STD-NMR hit flag) (AAK1 (121-471)): 1
- DOT1L (STD-NMR hit flag) (DOT1L (1-416)): 0
- IDO1 (STD-NMR hit flag) (IDO1 (1-435)): 0

SMILES: O=C(O)c1cc(Cl)c[nH]1 [Fragment B02291221]
- CAMK1G (STD-NMR hit flag) (CAMK1G (1-320)): 0
- AAK1 (STD-NMR hit flag) (AAK1 (121-471)): 0
- DOT1L (STD-NMR hit flag) (DOT1L (1-416)): 0
- IDO1 (STD-NMR hit flag) (IDO1 (1-435)): 0

SMILES: NC(=O)c1cc2c(nc1Cl)CCC2 [Fragment B02291222]
- CAMK1G (STD-NMR hit flag) (CAMK1G (1-320)): 0
- AAK1 (STD-NMR hit flag) (AAK1 (121-471)): 0
- DOT1L (STD-NMR hit flag) (DOT1L (1-416)): 0
- IDO1 (STD-NMR hit flag) (IDO1 (1-435)): 0

SMILES: CS(=O)(=O)c1ncc(Cl)c(C(=O)O)n1 [Fragment B02291223]
- CAMK1G (STD-NMR hit flag) (CAMK1G (1-320)): 0
- AAK1 (STD-NMR hit flag) (AAK1 (121-471)): 0
- DOT1L (STD-NMR hit flag) (DOT1L (1-416)): 0
- IDO1 (STD-NMR hit flag) (IDO1 (1-435)): 0

SMILES: Clc1ncccn1 [Fragment B02291224]
- CAMK1G (STD-NMR hit flag) (CAMK1G (1-320)): 0
- AAK1 (STD-NMR hit flag) (AAK1 (121-471)): 0
- DOT1L (STD-NMR hit flag) (DOT1L (1-416)): 0
- IDO1 (STD-NMR hit flag) (IDO1 (1-435)): 0

From publication PMC8847695 (Frontiers in Chemistry, 2022)
